System: HUVECs
Experiment: MTT cytotoxicity on normal cells
Format: cell-based, human
Conditions: concentration of 10 μM or below, 48 h
Experimental: The human colorectal cancer cell lines, HCT116 and LoVo, the breast cancer cell line, T47D, the hepatocellular carcinoma cell line, HepG2, the normal human liver cell line, HL7702, human umbilical vein endothelial cells (HUVECs), and the non-small cell lung cancer cell lines, A549, H1993, HCC827, H460, were purchased from the American Type Culture Collection (Manassas, VA, United States). Cell lines were cultured in the recommended RPMI-1640 medium (AE24464298, Hyclone, United States) and DMEM medium (AE29422278, Hyclone, United States) supplemented with 10% fetal bovine serum (FBS; JC63470, FB15015, Clark, United States) with 1% penicillin-streptomycin. […]
Cell viability was measured by the MTT assay. […] An assay kit (WLA073, Wanlei Co., Liaoning, China), was used according to the manufacturer’s instructions to measure LDH activity, The absorbance at 450 nm was measured with a microplate reader (Elx-800, Bio-Rad, China).
First, the effects of NY-2 and ZLDI-8 on the survival rates of four NSCLC cell lines, A549, H1993, HCC827, H460, were compared by the MTT cytotoxicity assay. The various types of NSCLC cells were incubated with increasing concentrations of NY-2 and ZLDI-8 (1.25, 2.5, 5, 10, and 20 μM), and the cell viability at 48 h was measured. […]

`Cc1c(C=C2C(=O)NC(=S)NC2=O)c2ccccc2n1CCOc1ccc(F)cc1` [NY-2] was tested, and the “cytotoxic effects on HUVEC cells” value was “no obvious cytotoxic effects”.

From PMC9884808, “Pharmacokinetics, tissue distribution, and antitumor activity of a novel compound, NY-2, in non-small cell lung cancer” (Frontiers in Pharmacology, 2023)
